Reference: patent US11504349B2, “Composition for preventing or treating TNF-related diseases, containing novel derivative as active ingredient, and method for inhibiting TNF activity by using same” (ILAB, priority 2017, dated 2022)

Key:
TNF [1] = target: T1, TNF (Homo sapiens, UniProt P01375); assay: TNF-neutralization bioassay: TNF-induced cell death of LM cells (MTT); format: cell-based; conditions: for inhibition at 50 µM: compound 50 μM, TNF 20 ng/ml, actinomycin D, LM cells, 24 hours; for IC50: inhibition of TNF-induced LM cell death
Description: (§1) First, the addition of recombinant TNF to mouse fibroblast LM cells induces cell death, and thus, by using the same, the TNF-neutralization bioassay was constructed. In other words, LM cells were pretreated with TNF (20 ng/ml) and the compounds synthesized in the above examples at various concentrations (5×10^4 cells/well), and a sensitizer actinomycin D ([…]) was added, and cultured in a CO2 incubator for 24 hours, and then the MTT assay was carried out. At this time, 10 μl of MTT (5 mg/ml stock) was added, reacted for 4 hours, and then dissolved in DMSO to measure the absorbance at 570 nm. First, the TNF cell death inhibition/neutralization action of TNF-target expected compounds at single concentration (50 or 10 μM) was measured. Second, IC50 values were determined by treating with the compounds having an excellent effect at different concentrations. The % inhibition of TNF was calculated using the following formula: % inhibition of TNF=(OD value of a group treated with TNF and compound−OD value of TNF treated group/(OD value of TNF untreated group−OD value of TNF treated group)×100.
(§2) IC50 values were statistically analyzed using Prism 6 (GraphPad) (IC50: 50% inhibitory concentration, CC50: 50% cytotoxic concentration).

[2] = Cytotoxicity (CC50) in LM cells, MTT assay; format: cell-based; conditions: mouse, LM cells (mouse fibroblasts); 50% cytotoxic concentration
Description: as §1, §2

biotinylated TNF = target: T2, biotinylated TNF (Homo sapiens, UniProt P01375); assay: Flow cytometry: binding of biotinylated TNF to Raw 264.7 cells; format: cell-based, mouse; conditions: compound 800, 200, 5 μM, FACS, FIG. 3a
T2 construct: purchased R&D Systems NFTAO
Description: First, macrophage Raw 264.7 cells were prepared (4×10^6 cells/ml), and the biotinylated TNF alone or in combination with the 4-benzopyranone derivative compound (800, 200, 5 μM) was added to the cells and reacted (30 min, 4° C.). 10 μl of avidin-FITC reagent was then added and reacted in the dark (30 min, 4° C.). After washing with RDF1 buffer, FACS analysis was carried out (BD Canto). Human TNF-alpha Biotinylated Fluorokine Flow Cytometry Kit (Cat #: NFTAO) of R&D Systems was used in the experiment.

TNF [3] = target: T1, TNF; assay: SPR (Biacore T200) direct binding to immobilized TNF; conditions: FIG. 2d
Description: The binding kinetics of TNF and 4-benzopyranone derivative compounds was measured by Surface Plasmon Resonance (SPR) method. First, based on the results of pH scouting (10 mM acetate buffer, pH 4.0, 4.5, 5.0, and 5.5), the appropriate buffer pH was determined, and then the recombinant TNF was immobilized on the CM5 chip (4000-5000 RU). In order to correct an effect of DMSO, a solvent correction standard was then prepared, and DMSO was added to the HBS-EP+ buffer (GE) in an amount of 5%. Then, the 4-benzopyranone derivative compounds were prepared depending on concentration, flowed into the chip (20 μl/min, 500 s), and dissolved (500 s), and the results of sensorgram were analyzed by a dedicated program to determine the affinity value (KD). At this time, the running buffer was HBS-EP+ buffer (GE), the regeneration buffer was 10 mM glycine (pH 2.5), and Biacore T200 (GE) was used as an analyzer.

DBA/1 mice = assay: CIA mouse model, alone and in combination with methotrexate; format: in vivo; conditions: Example 61 10 mpk PO once a day, MTX 5 mpk three times a week, to Day 73
Excerpt: A 1:1 mixture of collagen type 2 and CFA was intradermally (ID) injected into the base of the tail of DBA/1 mice. Two weeks after the primary immunization, a 1:1 mixture of bovine collagen type 2 and IFA (incomplete Freund's adjuvant) was intradermally (ID) injected into the base of the tail to prepare the rheumatoid arthritis animal model. The thus prepared mice were divided into […], i.e., a positive control group (MTX 5 mpk treated group: 10 mice), a group treated with the compound of Example 61 alone (10 mpk treated group: 9 mice), a group treated with MTX and the compound of Example 61 (each 5 mpk and 10 mpk; 9 mice), and a group treated with vehicle (a group treated with 0.05% CMC diluted in distilled water; 15 mice). […]
The severity of arthritis was determined by ascertaining the mean score of arthritis according to the following standard score in the forefoot and hindfoot twice a week from Day 0 to Day 73 after the primary immunization: 0=normal foot, 1=inflammation and swelling of one toe, 2=inflammation and swelling of more than one toe, but not all of the toes have inflammation and swelling, or weak swelling of all toes, 3=inflammation and swelling of all toes, and 4=severe inflammation and swelling or occlusion of foot.

T1 sequence (P01375 77-233 limits assumed): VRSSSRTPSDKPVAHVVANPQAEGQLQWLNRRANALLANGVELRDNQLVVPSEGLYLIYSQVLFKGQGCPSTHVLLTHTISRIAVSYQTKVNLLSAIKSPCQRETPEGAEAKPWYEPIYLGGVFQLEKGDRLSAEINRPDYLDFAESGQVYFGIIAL
T2 sequence (P01375 77-233 limits assumed): as above

| Compound | melting point [°C] | binding to TNF (TNF [3]) | inhibition at 50 µM (TNF [1]) [%] | IC50 (TNF [1]) [µM] | CC50 at 24 h [2] [µM] | inhibitory activity against TNF-cell binding (biotinylated TNF) | therapeutic effect on arthritis (mean arthritis score) (DBA/1 mice) |
| --- | --- | --- | --- | --- | --- | --- | --- |
| CN(Cc1cnc2nc(N)nc(N)c2n1)c1ccc(C(=O)N[C@@H](CCC(=O)O)C(=O)O)cc1 [MTX, methotrexate, reference compound] |  |  |  |  |  |  | therapeutic effect on arthritis was shown |
| COc1cccc2c(=O)c(C(=O)O)c(-c3ccc(Cl)cc3)oc12 [Example 74, 2-(4-chlorophenyl)-3-carboxy-8-methoxy-(4H)-4-benzopyranone] | 238 to 239 |  | 79 | 52.5 | > 50 |  |  |
| O=C(O)c1c(-c2cccc(F)c2F)oc2ccc(Br)cc2c1=O [Example 57, 2-(2,3-difluorophenyl)-3-carboxy-6-bromo-(4H)-4-benzopyranone] | ≥ 120 |  | 100 | 10.3 | 47 |  |  |
| O=C(O)c1c(-c2cccc(F)c2)oc2cc(Cl)ccc2c1=O [Example 44, 2-(3-fluorophenyl)-3-carboxy-7-chloro-(4H)-4-benzopyranone] | 160 to 163 |  | 93.2 | 45.6 | > 50 |  |  |
| O=C(O)c1c(-c2ccco2)oc2ccc(Br)cc2c1=O [Example 24, 2-(2-furanyl)-3-carboxy-6-bromo-(4H)-4-benzopyranone] | 209 to 211 |  | 76.3 | 2.5 | > 50 |  |  |

The next lines start with results.

| melting point [°C] | binding to TNF (TNF [3]) | Compound | inhibition at 50 µM (TNF [1]) [%] | IC50 (TNF [1]) [µM] | CC50 at 24 h [2] [µM] | inhibitory activity against TNF-cell binding (biotinylated TNF) | therapeutic effect on arthritis (mean arthritis score) (DBA/1 mice) |
| --- | --- | --- | --- | --- | --- | --- | --- |
| 216 to 218 |  | O=C(O)c1c(-c2cc(F)cc(F)c2)oc2ccc(Br)cc2c1=O [Example 51, 2-(3,5-difluorophenyl)-3-carboxy-6-bromo-(4H)-4-benzopyranone] | 100 | 4.5 | 13 | moderate inhibitory activity |  |
| 208 to 210 | did not bind to TNF | Cc1cccc(-c2oc3ccc(Br)cc3c(=O)c2C(=O)O)c1 [Example 30, 2-(3-methylphenyl)-3-carboxy-6-bromo-(4H)-4-benzopyranone] | 7.4 |  |  | did not inhibit the cell binding of TNF at all |  |
| 195 to 198 |  | O=C(O)c1c(-c2ccc(F)c(F)c2)oc2ccc(Cl)cc2c1=O [Example 67, 2-(3,4-difluorophenyl)-3-carboxy-6-chloro-(4H)-4-benzopyranone] | 100 | 3.9 | 21 |  |  |
